In publication PMC9933482 (ACS Omega, 2023):
Converted amounts (≈) assume the structure as drawn. “Also recorded” adds a separate entry of the source.

Legend:
[1] = tested on: MCF-7 cell line; test: MTT cytotoxicity assay, MCF-7; assay type: cell-based, human; details: Homo sapiens, MCF7, 24 h, read-out: IC50 in μg/mL MCF-7, MTT, 24 h treatment
[2] = tested on: HePG-2 cell line; test: MTT cytotoxicity assay, HePG-2; assay type: cell-based, human; details: Homo sapiens, HepG2, 24 h, read-out: IC50 in μg/mL HePG-2, MTT, 24 h treatment
[3] = tested on: human lung fibroblast cell line WI38; test: MTT cell viability, normal lung fibroblast WI38; assay type: cell-based; details: WI-38, read-out: IC50 in μg/mL WI38
[4] = molecular target: human carbonic anhydrase IX (hCAIX) (Homo sapiens, UniProt Q16790); test: biochemical
[5] = molecular target: recombinant human carbonic anhydrase XII (hCAXII) (Homo sapiens, UniProt O43570); test: hCAXII enzyme inhibition assay; assay type: biochemical
[6] = tested on: HePG-2 cells; test: Annexin V-FITC/PI apoptosis and necrosis assay by flow cytometry; assay type: cell-based, human; details: for increase of early apoptotic ratio compared to control cells / increase of late apoptotic % compared to control cells / necrosis compared to the control cell HePG-2: HePG-2; for apoptosis total, cell content % / apoptosis early, cell content % / necrosis, cell content % / apoptosis late, cell content %: HePG-2, compound at IC50; for apoptosis early, cell content %: lower right quadrant; for necrosis, cell content %: upper left quadrant; for apoptosis late, cell content %: upper right quadrant
[7] = tested on: HePG-2 cells; test: Cell cycle analysis by DNA flow cytometry; assay type: cell-based, human; details: for %G0–G1 (DNA content) / %G2/M (DNA content) / %S (DNA content): HePG-2, compound at IC50, 24 h
[8] = tested on: caspase-9; test: Caspase 9 assay; assay type: cell-based, human; details: for increase in level of active caspase-9 compared to control: HePG-2; for Casp9 OD: HepG2 cells treated with compound

Sequence of recombinant human carbonic anhydrase XII (hCAXII) (O43570 25-291): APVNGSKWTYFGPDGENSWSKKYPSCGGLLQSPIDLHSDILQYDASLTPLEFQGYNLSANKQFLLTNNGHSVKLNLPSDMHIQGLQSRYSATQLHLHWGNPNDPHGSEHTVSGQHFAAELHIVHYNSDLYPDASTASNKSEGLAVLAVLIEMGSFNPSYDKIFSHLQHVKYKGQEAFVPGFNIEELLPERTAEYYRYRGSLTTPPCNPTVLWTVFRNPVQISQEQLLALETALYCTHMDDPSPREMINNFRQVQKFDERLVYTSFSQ

Structure (SMILES)	IC50 [1] [µg/mL]	IC50 [2] [µg/mL]	IC50 [3] [µg/mL]	IC50 [4] [nM]	IC50 [5] [nM]	increase of early apoptotic ratio compared to control cells [6] [fold]	increase of late apoptotic % compared to control cells [6]	necrosis compared to the control cell HePG-2 [6] [fold]	apoptosis total, cell content % [6] [%]	apoptosis early, cell content % [6] [%]	necrosis, cell content % [6] [%]	apoptosis late, cell content % [6] [%]	cell cycle comment (phase of arrest) ([7]; HePG-2)	%G0–G1 (DNA content) [7] [%]	%G2/M (DNA content) [7] [%]	%S (DNA content) [7] [%]	increase in level of active caspase-9 compared to control [8] [fold]	Casp9 OD [8]	further results
CCOC(=O)C1CSc2[nH]c(=O)sc2C1c1cn(-c2ccccc2)nc1-c1ccc(Cl)cc1 (stereo not drawn) [compound 7i, Ethyl 7-(3-(4-Chlorophenyl)-1-phenyl-1H-pyrazol-4-yl)-2-oxo-3,5,6,7-tetra-hydro-2H-thiopyrano[2,3-d]thiazole-6-carboxylate]	10.1 ± 1.5 (≈ 20.2 µM)	7.83 ± 2.1 (≈ 15.7 µM)	19.5 ± 1.6 (≈ 39.1 µM)	287 ± 14	123 ± 7	52	~45 fold	~3	41.13	28.71	2.91	9.51	arrested in phase G2/M; also recorded: cell growth arrest@G2/M	39.56	27.93	32.51	3	0.609	increase of cell ratio in phase G2/M compared to the control ([7]; HePG-2): 1.6 fold; caspase-9 protein level vs untreated cells, Image J analysis ([8]; after normalization to β-actin): 2.98 fold
N#CC1CSc2[nH]c(=O)sc2C1c1cn(-c2ccccc2)nc1-c1ccc(Br)cc1 (stereo not drawn) [compound 7e, 7-(3-(4-Bromophenyl)-1-phenyl-1H-pyrazol-4-yl)-2-oxo-3,5,6,7-tetrahydro-2H-thiopyrano-[2,3-d]thiazole-6-carbonitrile]	10.1 ± 2.1 (≈ 20.4 µM)	9.11 ± 3.2 (≈ 18.4 µM)	27.1 ± 3.3 (≈ 54.6 µM)	67 ± 3	202 ± 11	21	approximately 101 fold	~3	36.28	11.91	3.13	21.24	arrested in phase S; also recorded: cell growth arrest@S	41.39	14.36	44.25	~4	0.813	increase of cell ratio in phase S compared to the control ([7]; HePG-2): 1.2 fold
